Consider three molecules from patent US20070208087A1, “Compounds, compositions and methods for the treatment of inflammatory diseases” (priority 2001, published 2007).

Several values for one entry are separate records, joined by “and”; a condition that tells them apart may be missing. Equal entries are not always repeated. Where two headings read alike, the source gives them in different places.

Holding throughout (format): cell-based
The subject of test [1] is EOC 13.31 microglia cells. Kind of test: NO release inhibition in LPS/IFNγ stimulated microglia, concurrent treatment, Griess reaction at 24 hours (Example 6). To be noted: 24 hours; for NO release, Avg: 50 μM; for inhibition at 50 µM: Microglia. The method, then:
The purpose of this experiment was to screen compounds 3, 4, 21, 26, 51, 52, 66, and 78 for their ability to inhibit Nitric oxide release from microglia. […] EOC 13.31 microglia cells were plated into 96 well plates for 24 hours. Confluent cells were treated with 50 μM of the bis- and tris-dihydroxyaryl compounds either with or without stimulation at 1 pg/ml LPS, and 1 ng/ml IFNγ. NO release was measured at 24 hours using the Griess reaction which is a spectrophotometric measure of NO release (reagents from Promega).

The test system of test [2] is EOC 13.31 microglia cells. Kind of test: Inhibition of NO release from microglia following 24 hours pretreatment (Example 10). Particulars: 50 uM pretreatment 24 hours, then LPS/IFNγ 48 hours; for inhibition at 50 µM: Microglia. On the procedure: This experiment was designed to determine if pretreatment for 24 hours with bis- and tris-dihydroxyaryl compounds changes NO inhibition previously observed with concurrent exposure of bis- and tris-dihydroxyaryl compounds. […] This study seeks to determine if pretreatment with bis- and tris-dihydroxyaryl compounds increases NO release inhibition. EOC 13.31 microglia cells were plated at 1×10^6 cells/ml in 96 well plates. After 48 hours, confluent cells were exposed to 50 μM compound (stock 10 mM in DMSO) prepared in fresh cell culture media. After 24 hours, 10 μg/ml LPS and 10 ng/ml IFNγ was added to wells directly without a media change. Cells were incubated for a further 48 hours and nitric oxide release was measured using the Griess Reaction.

Another test deals with microglia. The test can be described thus: Ranking of NO release inhibition (Example 12). Particulars: Microglia, ranking table. An excerpt:
The bis- and tris-dihydroxyaryl compounds were ranked in order of effectiveness for the inhibition of NO release as set out in Table 8.

Test [3] concerns EOC 13.31 microglial cells. The test can be described thus: NO release inhibition screen in LPS/IFNγ stimulated microglia, Griess reaction at 48 hours (Example 7). The method, then: In this experiment, additional bis- and tris-dihydroxyaryl compounds were screened for their ability to inhibit nitric oxide release from microglial cells. Microglial cells stimulated with LPS/IFNγ release nitric oxide. […] This is a continuation of screening experiments. EOC 13.31 microglial cells were plated into 96 well plates. At 24 hours and at confluency, cells were treated with 10 μg/ml LPS/10 ng/ml IFNγ+50 uM bis- and tris-dihydroxyaryl compounds.

The next test deals with Microglial cells. The test can be described thus: Dose response inhibition of NO release from microglia, 0.5-500 μM (Example 9). To be noted: for μM NO release / μM NO release (No LPS average subtracted): 3 replicates. The method, then: This experiment was designed to determine the dose response inhibition of NO release from microglia by bis- and tris-dihydroxyaryl compounds when stimulated with LPS/IFNγ. Earlier experiments have demonostrated that some bis- and tris-dihydroxyaryl compounds are good inhibitors of NO release from microglia. This experiment is designed to determine a dose response for various effective bis- and tris-dihydroxyaryl compounds. Microglial cells were plated into 96 well plates at 1×10^5 cells/ml. At 48 hours, media was exchanged for media containing 10 ng/ml IFNγ and 10 μg/ml LPS and the following compounds 3, 4, 21, 26 and the positive control L-NAME. The doses tested were: 0.5 μM, 1.0 μM, 5.0 μM, 10 μM, 25 μM, 50 μM, 100 μM, 250 μM, and 500 μM. Nitric oxide release was measured after 48 hours using the Griess reaction.

The subject of test [4] is TNF-α release from microglia. The test can be described thus: TNF-α release from LPS/IFNγ stimulated microglia, TNF-α ELISA (Example 11). To be noted: 50 uM compound, TNF-α release, 10 ug LPS and 10 ng IFNγ, 24 hours. The method, then: Also, bis- and tris-dihydroxyaryl compound's ability to inhibit NO release strongly supports their interference with the inflammatory cascade and utlimately inhibition of inflammation. Microglia cells were plated at 1×10^5 cells/ml into 96 well plates. At day three, they were treated with 50 μM bis- and tris-dihydroxyaryl compound for 1 hour and then exposed to 10 μg/ml LPS+10 ng/ml IFNγ for 24 hours. 10 μl of media was removed and stored at −80° until TNF-α ELISA assays were performed. Samples were diluted 1:50 before running the TNF-α ELISA (kit commercially available from Sigma).

Setting [5] is: Compound Only (without LPS/IFNγ).
Setting [6] is: Compound + LPS/IFNγ, read-out: % inhibition of NO release.
Where [7] appears, read: Table 2 summary, LPS/IFNγ, read-out: % Inhibition (summary of inhibition of NO release).
Setting [8] is: single replicates, read-out: % inhibition.
Where [9] appears, read: dose 0.5 μM, LPS/IFNγ, 48 hours.
Setting [10] is: dose 100 μM, LPS/IFNγ, 48 hours.
Where [11] appears, read: dose 250 μM, LPS/IFNγ, 48 hours.
[12] abbreviates: dose 500 μM, LPS/IFNγ, 48 hours.

`O=C(CCC(=O)Nc1ccc(O)c(O)c1)Nc1ccc(O)c(O)c1` [Compound 66, succinic acid bis(3,4-dihydroxyanilide)]: the “NO release, Avg” value in test [1] (Compound + LPS/IFNγ) was 15.4762 µM; in test [1] (setting [5]), 0.8333 µM. The inhibition at 50 µM in test [1] (setting [6]) is 16.9%; in test [1] (setting [7]), 16.9%; in test [2] (read-out: Avg % Inhibition) it was 64.3%; in test [2] (setting [8]) it was 68.4%; with microglia, 17%. Further, the “% inhibition” value in test [2] (single replicates) is 59.20% and 65.21%.
For the molecule `O=C(CCC(=O)NCc1ccc(O)c(O)c1)NCc1ccc(O)c(O)c1` [Compound 67, succinic acid bis(3,4-dihydroxybenzylamide)], in test [3] (50 uM + 10 μg/ml LPS/10 ng/ml IFNγ, 48 hours), the “μM NO release Avg” value is 10.579 µM. In addition, the “% inhibition” value in test [3] (50 uM + 10 μg/ml LPS/10 ng/ml IFNγ, 48 hours, single replicates, 50 µM) is 44.82% and 72.72% and 65.01%; in the test with Microglial cells (dose 0.5 μM, individual replicates, NO release, LPS/IFNγ, 48 hours) it was −7.00% and −0.25% and −1.00%; in the test on Microglial cells (dose 1 μM, individual replicates, NO release, LPS/IFNγ, 48 hours), −7.00% and 5.00% and 6.50%; with Microglial cells (dose 5 μM, individual replicates, NO release, LPS/IFNγ, 48 hours), −6.25% and 3.50% and 0.50%; in the test with Microglial cells (dose 10 μM, individual replicates, NO release, LPS/IFNγ, 48 hours) it was −14.49% and −9.99% and −13.74%; with Microglial cells (dose 25 μM, individual replicates, NO release, LPS/IFNγ, 48 hours), −1.75%. The “% inhibition” value in the test with Microglial cells (dose 50 μM, individual replicates, NO release, LPS/IFNγ, 48 hours) is −12.99% and −4.75% and −9.99%; with Microglial cells (dose 100 μM, individual replicates, NO release, LPS/IFNγ, 48 hours) it was 12.49% and 30.48% and 5.00%; with Microglial cells (dose 250 μM, individual replicates, NO release, LPS/IFNγ, 48 hours) it was 42.44%; with Microglial cells (dose 500 μM, individual replicates, NO release, LPS/IFNγ, 48 hours), 78.38%; in test [2] (single replicates), 58.88% and 67.74%; in test [4] (individual replicates, 50 µM), −27.48% and −14.06% and −17.41%. Besides, the “inhibition of NO release, in words” value in test [3] (50 uM, LPS/IFNγ stimulated microglia) is on record as “effective inhibitors of NO release”. The inhibition at 50 µM in test [3] (Microglia, 48 h, 50 uM + 10 μg/ml LPS/10 ng/ml IFNγ, 48 hours, read-out: Avg. % Inhibition) is 60.9%; with Microglial cells (Microglia, 48 h, dose 50 μM, NO release, LPS/IFNγ), -9.24%; in test [2] (read-out: Avg % Inhibition), 65.6%; in test [2] (setting [8]), 70.3%; in test [4] (Microglia, 24 h, read-out: Avg % Inhibition) it was -19.6%; in the test on microglia, 61%. Moreover, the inhibition at 0.5 µM in the test on Microglial cells (Microglia, 48 h, dose 0.5 μM, NO release, LPS/IFNγ, 48 hours, read-out: Avg % Inhibition) is -2.75%. Also, the inhibition at 1 µM in the test on Microglial cells (Microglia, 48 h, dose 1 μM, NO release, LPS/IFNγ, 48 hours, read-out: Avg % Inhibition) amounted to 1.5%. For the same molecule, the inhibition at 5 µM in the test with Microglial cells (Microglia, 48 h, dose 5 μM, NO release, LPS/IFNγ) was -0.75%. In the test on Microglial cells (Microglia, 48 h, dose 10 μM, NO release, LPS/IFNγ), the inhibition at 10 µM is -12.7%. Further, the inhibition at 25 µM in the test on Microglial cells (Microglia, 48 h, dose 25 μM, NO release, LPS/IFNγ) was -5.5%. The inhibition at 100 µM in the test on Microglial cells (Microglia, 48 h, dose 100 μM, NO release, LPS/IFNγ, 48 hours, read-out: Avg % Inhibition) turned out to be 16%. Moreover, the inhibition at 250 µM in the test with Microglial cells (Microglia, 48 h, dose 250 μM, NO release, LPS/IFNγ, 48 hours, read-out: Avg % Inhibition) came to 44.4%; with Microglial cells (Microglia, 48 h, dose 250 μM, individual replicates, NO release, LPS/IFNγ, 48 hours, read-out: % inhibition), 45.3%. In addition, the inhibition at 500 µM with Microglial cells (Microglia, 48 h, dose 500 μM, NO release, LPS/IFNγ, 48 hours, read-out: Avg % Inhibition) is 76.9%; with Microglial cells (Microglia, 48 h, dose 500 μM, individual replicates, NO release, LPS/IFNγ, 48 hours, read-out: % inhibition), 75.5%; in the test with Microglial cells (Microglia, 48 h, highest concentration tested (500 μM), 48 hours, read-out: inhibited NO release by), 76%. The “μM NO release” value in the test with Microglial cells (setting [9]) is 21.528 µM and 20.278 µM and 20.417 µM; in the test on Microglial cells (dose 1 μM, LPS/IFNγ, 48 hours), 21.528 µM and 19.306 µM and 19.028 µM; with Microglial cells (dose 5 μM, LPS/IFNγ, 48 hours), 21.389 µM and 19.583 µM and 20.139 µM; in the test on Microglial cells (dose 10 μM, LPS/IFNγ, 48 hours), 22.917 µM and 22.083 µM and 22.778 µM; in the test with Microglial cells (dose 25 μM, LPS/IFNγ, 48 hours) it was 21.944 µM and 20.556 µM and 21.250 µM; in the test on Microglial cells (dose 50 μM, LPS/IFNγ, 48 hours), 22.639 µM and 21.111 µM and 22.083 µM. Besides, the “μM NO release” value is 17.917 µM and 14.583 µM and 19.306 µM with Microglial cells (setting [10]); 11.835 μM (2×) and 12.367 μM in the test with Microglial cells (setting [11]); 6.250 µM and 5.707 µM and 5.978 µM in the test on Microglial cells (setting [12]). For the same molecule, the “μM NO release (No LPS average subtracted)” value in the test on Microglial cells (setting [9]) was 19.83 µM and 18.58 µM and 18.72 µM; in the test with Microglial cells (dose 1 μM, LPS/IFNγ, 48 hours), 19.83 µM and 17.61 µM and 17.33 µM; in the test with Microglial cells (dose 5 μM, LPS/IFNγ, 48 hours) it was 19.69 µM and 17.88 µM and 18.44 µM; with Microglial cells (dose 10 μM, LPS/IFNγ, 48 hours), 21.22 µM and 20.38 µM and 21.08 µM; with Microglial cells (dose 25 μM, LPS/IFNγ, 48 hours) it was 20.24 µM and 18.86 µM and 19.55 µM; with Microglial cells (dose 50 μM, LPS/IFNγ, 48 hours), 20.94 µM and 19.41 µM and 20.38 µM. For the same molecule, the “μM NO release (No LPS average subtracted)” value in the test with Microglial cells (setting [10]) was 16.22 µM and 12.88 µM and 17.61 µM; in the test on Microglial cells (setting [11]) it was 10.14 μM (2×) and 10.67 μM; in the test on Microglial cells (setting [12]), 4.55 µM and 4.01 µM and 4.28 µM.
For the molecule `O=C(NCCc1ccc(O)c(O)c1)Nc1ccc(O)c(O)c1` [Compound 78, 1-(3,4-dihydroxyphenyl)-3-(3,4-dihydroxyphenethyl)urea], the entries for the “NO release, Avg” value in test [1] (Compound + LPS/IFNγ) and in test [1] (setting [5]) were 18.7925 µM and 1.1667 µM, respectively. Moreover, the inhibition at 50 µM in test [1] (setting [6]) was -0.9%; in test [1] (setting [7]), -0.9%; in test [2] (read-out: Avg % Inhibition) it was 65.5%; in test [2] (setting [8]), 69.6%; in the test with microglia it was -1%. In addition, in test [2] (single replicates), the “% inhibition” value is 57.93% and 69.00%.
